Experimental findings from a melting point compilation (Tetko et al.; mined from patent text by program, amines drawn as free bases though some values may be those of a salt) are described below.

Regarding `Cc1oc(-c2ccccc2)nc1CCOc1ccc(C[C@H](NC(=O)C=Cc2ccc(F)cc2)C(=O)O)cc1`, the melting point lay within 188 to 190 °C.
`Cc1cccc(C2(C#N)C3CC4CC(C3)CC2C4)c1` (configuration not stated) came in with a melting point of 85 to 86 °C.
`CCCCC/C(=C\C=C\C(=O)O)c1ccc(OC)c(OC)c1`: the melting point lay in the range of 98 to 99.5 °C.
The compound `CCSc1cc(C)nc(SCC)c1NC(=O)CCCCSc1nc2ccccc2o1` had a melting point of 122 to 123 °C.
Regarding `CSc1c(N)cnc2ccccc12`, the melting point fell in the range of 96 to 98 °C.
The compound `CCOC(=O)Cc1ccc(SCc2cc(C)ccc2C(=O)O)cc1` gave a melting point of 94 °C.
With `O=C(Nc1ccc([N+](=O)[O-])cc1)N1CCN(c2nc(-c3ccccc3)nc3ccccc23)CC1`, the melting point fell in the range of 236 to 238 °C.
As to `CC#CCOc1ccc(S(=O)(=O)N(C)C(C(=O)NO)c2ccc(OCCCNC(=O)OCc3ccccc3)cc2)cc1` (configuration not stated), the melting point was in the range of 48 to 50 °C.
In the case of `CCS(=O)(=O)c1ccc2c3c(cccc13)C(=O)N2`, the melting point fell in the range of 270 to 272 °C.
`CN(C)C(=S)Oc1ccc(S(=O)(=O)c2ccc(C#N)cc2)cc1` yielded a melting point of 158 to 167 °C.
The value for `COc1ccc(C(=C/C=C/C(=O)NCCCc2ccncc2)c2ccc(OC)cc2)cc1` was 90 to 92 °C; that for `CCCCCCCCCCCCCCCc1cccc(OC)c1C1NC(=O)NC(C)=C1C(=O)OC` (configuration not stated) was 101 to 102 °C.
Take `CC(C)[Si](O[C@@H](CO)[C@H](CC1CCCCC1)NC(=O)OC(C)(C)C)(C(C)C)C(C)C`: the melting point lay within 61 to 63 °C.
`Cn1nc(C(=O)O)c(=O)n(C)c1=O` yielded a melting point of 220 to 223 °C.
As for `CC(=O)N(C)c1cccc(C2=CCNc3c(C#N)cnn32)c1`, the figure is 114 to 120 °C; as for `CC(=O)c1cn(S(=O)(=O)c2ccccc2)c2nccc(OCc3ccccc3)c12`, 164 to 166 °C; as for `Cc1c(-c2ccccc2)n[nH]c1-c1ccccc1`, 225 to 226 °C.
The compound `CC(C)(C)OC(=O)COC1CCN(C(=O)[C@]2(C)CCCN2C(=O)c2ccc(C#N)cc2)CC1` yielded a melting point of 180 to 182 °C.
`CN(C)c1ccc(-n2c(N)nc3ccccc32)cc1-c1ccco1`: the melting point was in the range of 208 to 210 °C.
As for `CC(C)(C)c1cc(-c2nc3ccc(O)cc3o2)ccc1O`, the figure is 220 to 222 °C; as for `COc1cc2c(Nc3ccc(Sc4ccccn4)cc3)c(C#N)cnc2cc1N1CCC(N2CCCC2)CC1`, 182 to 184 °C.
In turn, `CN1CC(CN(CCC#N)C(N)=O)CC2c3cccc4[nH]cc(c34)CC21` (configuration not stated) had a melting point of 252 to 254 °C.
The value for `COc1ccc(C(=O)c2sc3ccccc3c2-c2ccccc2)cc1` was 94 to 95 °C; that for `O=C1CCCCN1c1ccc(I)cc1` was 108 to 110 °C.
The value for `Cc1cc([N+](=O)[O-])c2c(c1Cl)CC(CO)O2` (configuration not stated) was 112 to 115 °C.
`CC(Oc1ccc(Oc2ccc(C(F)(F)F)cc2)cc1)C(=O)O` (configuration not stated) had a melting point of 138 to 140 °C.
For `CNc1nc2cccc(C(=O)O)c2s1`, the melting point was above 330 °C.
In the case of `C=C(C)Cc1cccc(C(=O)O)c1S`, the melting point is 89 to 92 °C.
In turn, `CN(Cc1ccc2c(Br)c(OCC(=O)O)ccc2c1)C(=O)c1oc2ccccc2c1CCc1ccccc1` returned a melting point of 119 to 122 °C.
As to `CC(C)CCCC(C)C1CCC2C3CC=C4CC(OCC(=O)O)CCC4(C)C3CCC12C` (configuration not stated), the melting point was determined as 160 °C.
The value for `O=C1NC(=Cc2ccccc2)C(NCc2ccccc2)=C1[N+](=O)[O-]` was 218 °C; that for `COC(=O)c1coc(CN2C(=O)C3(COc4cc5onc(C)c5cc43)c3ccccc32)n1` (configuration not stated) was 148 to 152 °C; that for `CCOC(=O)c1cc(O)c(C(=O)NCc2ccccc2)cc1O` was 110 °C.
The value for `Fc1ccc(Cn2c(NC3CCN(CCNc4ncccn4)CC3)nc3cncnc32)cc1` was 164 °C; that for `COC(=O)NN=C(OC)OC` was 78.5 to 81.5 °C.
Regarding `N#Cc1cc2c3c(cccc3c1N1CCCCC1)C(=O)N(O)C2=O`, the melting point is above 250 °C.
The value for `Fc1cc(OCc2ccccc2)cnc1Cl` was 48 to 52 °C.
Take `N=c1sc2cc(OC(F)(F)F)ccc2n1CCS`: the melting point was 110 °C.
For `COc1cc2c(cc1C)CCN=C2C1(C2C=CCCC2)CCC1` (configuration not stated), the melting point fell in the range of 70 to 73 °C.
The value for `CCCC(=O)Nc1c(C)c(C)c2c(c1C)C(c1ccc(C)cc1)C(C)(C)O2` (configuration not stated) was 138 to 139 °C.
As for `C=C(c1ccc(OC)cc1)c1sc(C)nc1C`, the figure is 139 to 140 °C.
Consider `O=C(NC(Cc1ccc(OCc2ccc(C(F)(F)F)cc2)cc1)C(=O)O)c1cn2ccc(-c3ccc(Cl)cc3)cc2n1` (configuration not stated), for which the melting point was 263 °C.
`CC1(C)OCc2cc(C(=O)CBr)ccc2O1` displayed a melting point of 52 to 54 °C.
Compound `NCC1Cc2cc(-c3ccccc3)cc(-c3ccccc3F)c2O1` (configuration not stated) showed a melting point above 250 °C.
For `CCOC(=O)C(=CNC1CC1)C(=O)c1cc(Cl)c(F)c(F)c1F`, the melting point fell in the range of 71 to 73 °C.
Compound `CC(C)(C)OC(=O)CC[C@@H](NC(=O)OCc1ccccc1)C(N)=O` came in with a melting point of 138 to 140 °C.
`Cc1cccc2c1nc(-c1c(F)cccc1F)n2Cc1c(F)c(F)c(F)c(F)c1F` registered a melting point of 155 to 156 °C.
Take `CC(=O)c1ccc(-c2ccc(S)cc2)cc1`: the melting point was in the range of 126 to 128 °C.
Consider `CCCCCCCCCCCCc1ccc(N)c([N+](=O)[O-])c1`, for which the melting point is 69 to 71 °C.
In turn, `O=C(Oc1ccc(N2c3ccccc3S(=O)(=O)c3ccccc32)cc1)c1ccccc1` gave a melting point of 233 to 235 °C.
`CN(C)c1ccc(C(=O)C#Cc2cccc(OCc3ccccc3)c2)cc1` registered a melting point of 134 to 136 °C.
Regarding `COC(=O)CCCCc1cc2nc(Cl)ccc2n1S(=O)(=O)c1ccccc1`, the melting point came out at 73 °C.
The value for `CCCC(NS(=O)(=O)c1ccc(Cl)cc1)C(=O)NNC(=S)NC` (configuration not stated) was 191 to 195 °C.
The value for `CC1CCCCN1CCNc1ccnc2cc(Cl)ccc12` (racemic) was 133 to 134 °C.
`CCOC(=O)c1cc(-c2ccc(Cl)cc2)cnc1C`: the melting point is 71 °C.
For `CC(C)(C)c1ccnc(-c2cc(C(C)(C)C)ccn2)c1`, the melting point lay in the range of 159 to 160 °C.
The value for `COc1ccc2c(c1)C(CCNC(=O)C(F)(F)F)=C(c1ccccc1)C2` was 138 to 139 °C; that for `COc1cccc2c1CCc1nc(-c3ccncc3)oc1-2` was 158 °C; that for `CC(C)(C)c1cc(CN)cc(C(C)(C)C)c1O` was 159 °C.
The value for `Cc1c(CC2CCc3c(c4ccccc4n3CC3CCCC3)C2=O)ncn1C(c1ccccc1)(c1ccccc1)c1ccccc1` (configuration not stated) was 177 to 179 °C; that for `BrCOc1cccc(OCc2ccccc2)c1` was 70 to 71 °C.
As for `CC(=O)OC1CSC(Oc2ccc(-c3cc4ccccc4o3)nc2)C(OC(C)=O)C1OC(C)=O` (configuration not stated), the melting point is 179 °C.
`Nc1ccc2ccccc2c1[N+](=O)[O-]` yielded a melting point of 123 to 125 °C.
`C=CCOC1=NC2OC(C(=O)c3ccc(Cl)cc3Cl)=C(NC(N)=O)C2C=C1` (configuration not stated) yielded a melting point of 222 °C.
Compound `CC1=NC(=Cc2ccc(C#N)cc2)C(=O)O1` gave a melting point of 192 to 193 °C.
For the compound `O=C(Nc1cnc2ccccc2c1)c1cc2cc(F)ccc2n1Cc1cccc(F)c1`, the melting point is 244 to 246 °C.
`Cc1nc2c(O)c(CCC(=O)c3cccs3)c(C(=O)N(C)C)cc2n1C` gave a melting point of 233 to 235 °C.
The value for `Cc1nnc2nc(-c3cccc(C(F)(F)F)c3)cnn12` was 230 to 233 °C; that for `O=C(Nc1ccccc1)C1=C(c2ccccc2)C(c2ccccc2)OC1=O` (configuration not stated) was 148 to 150 °C.
The value for `CCC(Cc1ccccc1)(NC(=O)CN)c1ccccc1` (configuration not stated) was 108 to 110 °C; that for `O=C(COc1cc(=O)oc2ccccc12)c1ccccc1` was 183 to 184 °C.
Turning to `NC(=O)c1cccc(OCCCCCBr)c1`, the melting point lay within 98 to 99 °C.
The value for `CC(=O)c1ccc(NC(=O)c2ccc(C=O)cc2)cc1` was 174 °C.
As to `ON=C1c2ccccc2CCC1Cc1ccccc1` (configuration not stated), the melting point lay in the range of 123 to 124 °C.
Consider `NC(CCCCNC(=O)OCc1ccccc1)C(=O)Nc1cccc2ccccc12` (configuration not stated), for which the melting point lay within 138 to 140 °C.
Compound `Cc1cc(NC(=O)c2ccccc2C)ccc1C(=O)O` registered a melting point of 231 to 233 °C.
The compound `COc1c(NC2CCC(=Cc3ccccc3)CC2)ccnc1C` (configuration not stated) had a melting point of 120 °C.
`O=C(O)[C@H](Cc1ccccc1)NC(=S)Cc1ccc([N+](=O)[O-])cc1`: the melting point was 149 to 150 °C.
As for `Cc1ccccc1C(NCC(=O)Nc1c(C(C)C)cccc1C(C)C)c1ccccc1` (configuration not stated), the melting point lay within 163 to 164 °C.
As for `Brc1c[nH]nc1-c1ccccc1`, the figure is 114 to 116 °C; as for `CCCc1ccc(C(=O)NCCc2cccs2)cc1`, 97 to 99 °C.
For `CC(C)CCNc1c([N+](=O)[O-])cnc2ccccc12`, the melting point fell in the range of 99 to 100 °C.
`Cc1nnc(-c2ccc3occ(-c4ccc(OCS(C)(=O)=O)cc4)c3c2)o1` returned a melting point of 198 to 199 °C.
`Cc1ccc(OC2CCN(C(=O)C(=O)Nc3ccc4[nH]c(=O)[nH]c4c3)CC2)cc1` gave a melting point of 294 °C.
On to `CC(=CC#N)Cn1sc2ccccc2c1=O`, for which the melting point lay in the range of 128 to 130 °C.
Compound `O=C1NC(=O)C(=Cc2ccc(-c3cc(C45CC6CC(CC(C6)C4)C5)c4oc(NC(=O)C(F)(F)F)nc4c3)nc2)S1` displayed a melting point of 353 °C.
In turn, `CCC(CC)Nc1cc(C)nc(Oc2c(C)cc(Cl)cc2C)c1N` registered a melting point of 72 to 74 °C.
Turning to `CC(C)(C)OC(=O)N(Cc1ccccc1)c1ccc(O)cc1`, the melting point is 228 to 230 °C.
For `O=[N+]([O-])c1ccc(F)c(-c2cccs2)c1`, the melting point is 65 °C.
`COC(=O)C1=C(N)CCC1` registered a melting point of 95 to 96 °C.
As to `CC(C)(c1ccccc1)C(S)C(=O)O` (configuration not stated), the melting point was 70 to 73 °C.
In turn, `CSCCC1N=C(c2ccccc2)c2cc(Cl)ccc2NC1=O` (configuration not stated) gave a melting point of 184 °C.
